Laboratory results from patent US8236851B2, “Microspherules containing a pleuromutilin derivative” (Novartis AG, priority 2001, dated 2012).
Where a name gives a salt, the structure may show the parent alone.

Columns and labels:
[1] = Stability of valnemulin in uncompressed feed; type: physicochemical
[2] = set-up: species or system piglets; settings: in vivo, po
Method: Bioavailability studies indicate that the microspherules pass through the stomach in an intact state and release the active ingredient only in the alkaline medium of the intestine. […] After 8-10 hours, the curve then falls off again and approaches zero. In case b), with the microspherules, the increase in active ingredient concentration begins after a delay of about 1-2 hours, reaches its maximum value after about 3-4 hours and, after about 10-12 hours, falls towards zero. […] This new method makes available a form of administration that is gentle on the stomach and that makes oral therapy even more efficient.

loss of valnemulin in uncompressed feed [1]: the same losses
time after which the plasma concentration curve falls towards zero [2]: 8 to 10 h
time at which plasma active ingredient concentration reaches its maximum value [2]: 2 to 3 h
SMILES: C=C[C@]1(C)C[C@@H](OC(=O)CSC(C)(C)CNC(=O)[C@H](N)C(C)C)[C@]2(C)[C@H](C)CC[C@]3(CCC(=O)[C@H]32)[C@@H](C)[C@@H]1O [free valnemulin hydrochloride, valnemulin]
